{"source": "patent US20200113902A1", "about": "“COMPOSITIONS AND METHODS FOR TREATING CANCERS WITH COVALENT INHIBITORS OF CYCLIN-DEPENDENT KINASE 7 (CDK7)” (Syros Pharmaceuticals, Inc., priority 2017, published 2020)", "key": {"[1]": {"tested_on": "gene expression in MDA-MB468 cells", "assay": "Gene expression profiling via RNA-seq (DESeq2, linear model), MDA-MB468", "type": "cell-based", "conditions": "four hours, JQ1 125 nM, Compound 1 25 nM", "experimental": "In addition, we compared the ability of JQ1 alone, Compound 1 alone, and a combination of JQ1 and Compound 1 to modify expression of various genes in two breast cancer cell lines. Two triple-negative breast cancer cell lines (HCC70 and MDA-MB468) were tested. The cell lines were treated with JQ1, Compound 1, the JQ1/Compound 1 combination, or DMSO for four hours, after which gene expression profiling via RNA-seq was performed. JQ1 was administered to the cells at a 125 nM final concentration in both single agent and combination experiments. Compound 1 was administered to the cells at a 25 nM final concentration in both single agent and combination experiments. Each experiment was performed in triplicate. One replicate of MDA-MB-468 treated with single-agent JQ1 was excluded from further analysis due to quality.\nWe employed DESeq2 (Love et al., Genome Biology, 15(12):550, 2014) to identify changes in gene expression due to the JQ1, Compound 1, and JQ1-Compound 1 combination treatment compared to the control DMSO condition based on the RNA-seq data. Genes resulting in a p-value below 0.01 and an absolute logFoldChange above 0.5 were considered to be differentially expressed. […] The same is true for 1459 of 2414 genes in MDA-MB468.\nTo identify the genes whose expression is impacted synergistically by the drug combination, we modeled the effect of each drug treatment on expression using a linear model. The expression of each gene after the combination treatment can be thought of as the combined impact of Compound 1, JQ1, and any synergistic interaction between the drug treatments on baseline gene expression. A linear model used to describe this relationship could therefore be represented as:\nGene Expression after combination treatment=Baseline Expression+Compound 1 effect+JQ1 effect+Combination effect (Synergistic Impact)\nBy fitting the expression data for each gene using this model, we were able to evaluate the effect of each treatment, and identify cases where a synergistic interaction between Compound 1 and JQ1 impacts final gene expression. After fitting the linear model to each gene, the weight and p-value of each term can be evaluated. The combination term's weight signifies the mean change resulting from a synergetic impact on expression, with a negative weight indicating synergistic downregulation. Its associated p-value represents the probability that the combination term is not relevant to final gene expression. Using this approach, we identified 1806 genes in HCC70 and 2205 genes in MDA-MB468 whose expression change in the combination treatment was synergistic and whose associated p-value was less than a threshold cutoff of 0.01. The expression of these synergistic genes could not be explained by an additive effect of Compound 1 and JQ1 alone."}, "[2]": {"tested_on": "ovarian carcinoma PDX models (OV5387, OV14702, OV14972, OV15398, OV15576, OV15696, OV15612, OV15631)", "assay": "Ovarian carcinoma patient-derived xenografts (eight models), tumor volume", "type": "in vivo, mouse", "conditions": "40 mg/kg or 30 mg/kg i.v. BIW; four did not respond", "experimental": "Patient-derived xenograft (PDX) models from ovarian carcinoma patients (OV5387, OV14702, OV14972, OV15398, OV15576, OV15696, OV15612, OV15631) were established in NOD-SCID mice at Crown Bioscience (San Diego, USA). Cryo vials containing tumor cells were thawed and prepared for injection into mice. Cells were washed in PBS, counted, and resuspended in cold PBS at a concentration of 50,000-100,000 viable cells/100 ul. Cell suspensions were mixed with an equal volume of Cultrex ECM and kept on ice during transport to the vivarium. Cells were prepared for injections by withdrawing ECM-Cell mixture into a chilled slip-tip syringe fitted with a 26G 7/8 (0.5 mm×22 mm) needle. The filled syringes were kept on ice to avoid the solidification of ECM. Each mouse was inoculated subcutaneously in the right flank with 200 uL of the cell suspension. Tumor sizes were measured in two dimensions using a caliper, and the volumes were expressed in mm3 using the formula: V=0.5 a×b^2 where a and b are the longest and shortest diameters of the tumor, respectively. Compound 1 treatment was started when the average tumor size reached 150-200 mm^3.\nCompound 1 was formulated in w/v 20% Captisol (pH 4-6) and administered by i.v. twice weekly (BIW) at a final dose of 40 mg/kg or 30 mg/kg in a 10 ml/kg volume. Tumor volumes were measured twice weekly over the course of the study. […]"}, "HR^+ breast cancer cells": {"tested_on": "HR^+ breast cancer cells", "assay": "Inhibition of HR^+ breast cancer cells in vitro (data not shown)", "type": "cell-based", "conditions": "including cells with acquired resistance to aromatase inhibitors and cells no longer responding to CDK4/6 inhibitors"}}}
{"smiles": "CN(C)C/C=C/C(=O)Nc1ccc(C(=O)N[C@@]2(C)CCC[C@@H](Nc3ncc(Cl)c(-c4c[nH]c5ccccc45)n3)C2)nc1", "note": "[Compound 1, N-((1S,3R)-3-(5-chloro-4-(1H-indol-3-yl)pyrimidin-2-ylamino)-1-methylcyclohexyl)-5-((E)-4-(dimethylamino)but-2-enamido)picolinamide]", "values": [{"measurement": "Average Expression (TPM) FOXC1", "setting": "[1]; DMSO 33.731", "result": 25.556, "unit": "TPM"}, {"measurement": "Average Expression (TPM) GATA3", "setting": "[1]; DMSO 34.244", "result": 21.773, "unit": "TPM"}, {"measurement": "Average Expression (TPM) TGIF1", "setting": "[1]; DMSO 145.88", "result": 134.08, "unit": "TPM"}, {"measurement": "Response to treatment across eight ovarian PDX models (tumor growth vs historical untreated)", "setting": "[2]", "result": "four of the xenografts responded to treatment"}, {"measurement": "Inhibition of HR^+ breast cancer cells in vitro", "setting": "HR^+ breast cancer cells", "result": "inhibits many HR^+ breast cancer cells in vitro"}]}
